Test results as given in patent publication US9833497B2, “Human originated EGF domain proteins and use of the same” (CHENGDU SOURCEBIO LIMITED-LIABILITY COMPANY, priority 2013, dated 2017).

Assays:
Type in all cases: cell-based
Aeromonas hydrophila = assay: MIC against Gram-negative bacteria: Aeromonas hydrophila; settings: 5×10^5 CFU/mL
In short: (§1)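 Inocula prepared by growing LB cultures at 37° C to 0.5 McFarland, centrifuging at 4000×g, and resuspending in fresh medium. Final density 5×10^5 CFU/mL per well with two-fold dilutions of purified EGF domain protein; shaking incubation at 37° C.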

Serratia marcescens = assay: MIC against Gram-negative bacteria: Serratia marcescens; settings: 5×10^5 CFU/mL
In short: as §1

Klebsiella pneumonia = assay: MIC against Gram-negative bacteria: Klebsiella pneumonia; settings: 5×10^5 CFU/mL
In short: as §1

Citrobacter diversus = assay: MIC against Gram-negative bacteria: Citrobacter diversus; settings: 5×10^5 CFU/mL
In short: as §1

Moraxella catarrhalis = assay: MIC against Gram-negative bacteria: Moraxella catarrhalis; settings: 5×10^5 CFU/mL
In short: as §1

Proteus mirabilis = assay: MIC against Gram-negative bacteria: Proteus mirabilis; settings: 5×10^5 CFU/mL
In short: as §1

E. coli DH5α = assay: Antibacterial activity: MIC and growth curve against E. coli DH5α in 96-well plate; settings: minimal inhibitory concentration against E. coli DH5α; 96-well plate, 5×10^5 CFU/mL, 37° C., judged after 8 h
In short: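 MIC taken as lowest protein level with no bacterial growth, tracked by A600 every 30 min during 37 °C, 175 rpm culture. Two-fold protein series 50-12.5 μg/mL final, triplicate wells, against 5×10^5 CFU/mL of LB-washed mid-log cells.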

Proteus vulgaris = assay: MIC against Gram-negative bacteria: Proteus vulgaris; settings: 5×10^5 CFU/mL
In short: as §1

Pseudomonas aeruginosa = assay: MIC against Gram-negative bacteria: Pseudomonas aeruginosa; settings: 5×10^5 CFU/mL
In short: as §1

Enterobacter cloacae = assay: MIC against Gram-negative bacteria: Enterobacter cloacae; settings: 5×10^5 CFU/mL
In short: as §1

E. coli BL21 = assay: MIC against Gram-negative bacteria: E. coli BL21; settings: 5×10^5 CFU/mL
In short: as §1

PRT69 (RRNFCDGRRCQNGGTCVNRWNMYLCECPLRFGGKNCE; listed as Homo sapiens)
25 µg/mL: MIC (μg/mL) C. diversus (Citrobacter diversus; Citrobacter diversus, 96-well plate, 37° C., 10 h) | MIC (μg/mL) P. aeruginosa (Pseudomonas aeruginosa; Pseudomonas aeruginosa, 96-well plate, 37° C., 10 h) | MIC (μg/mL) E. cloacae (Enterobacter cloacae; Enterobacter cloacae, 96-well plate, 37° C., 10 h)
12.5 µg/mL: MIC (μg/mL) A. hydrophila (Aeromonas hydrophila; Aeromonas hydrophila, 96-well plate, 37° C., 10 h) | MIC (μg/mL) S. marcescens (Serratia marcescens; Serratia marcescens, 96-well plate, 37° C., 10 h) | MIC (μg/mL) K. pneumonia (Klebsiella pneumonia; Klebsiella pneumonia, 96-well plate, 37° C., 10 h) | MIC (μg/mL) M. catarrhalis (Moraxella catarrhalis; Moraxella catarrhalis, 96-well plate, 37° C., 10 h) | MIC (μg/mL) P. mirabilis (Proteus mirabilis; Proteus mirabilis, 96-well plate, 37° C., 10 h) | MIC (E. coli DH5α) | MIC (μg/mL) P. vulgaris (Proteus vulgaris; Proteus vulgaris, 96-well plate, 37° C., 10 h) | MIC (μg/mL) E. coli BL21 (E. coli BL21; 96-well plate, 37° C., 10 h)

PRT567 (CTCDPAGSQNEGICDSYTDFSTGLIAGQCRCKLNVEGEHCDVCKEGFYDLSSEDPFGCKS; listed as Homo sapiens)
12.5 µg/mL: MIC against S. marcescens (Serratia marcescens; 96-well plate, 37° C., 10 h) | MIC against C. diversus (Citrobacter diversus; 96-well plate, 37° C., 10 h) | MIC against P. mirabilis (Proteus mirabilis; 96-well plate, 37° C., 10 h) | MIC against P. vulgaris (Proteus vulgaris; 96-well plate, 37° C., 10 h) | MIC against P. aeruginosa (Pseudomonas aeruginosa; 96-well plate, 37° C., 10 h)
50 µg/mL: MIC against M. catarrhalis (Moraxella catarrhalis; 96-well plate, 37° C., 10 h) | MIC (E. coli DH5α) | MIC against E. cloacae (Enterobacter cloacae; 96-well plate, 37° C., 10 h)
25 µg/mL: MIC against A. hydrophila (Aeromonas hydrophila; 96-well plate, 37° C., 10 h) | MIC against K. pneumonia (Klebsiella pneumonia; 96-well plate, 37° C., 10 h) | MIC against E. coli BL21 (E. coli BL21; 96-well plate, 37° C., 10 h)

PRT770 (FRDPCDPNPCQNDGICVNVKGMASCRCISGHAFFYTGERCQ; listed as Homo sapiens)
50 µg/mL: MIC (μg/mL) S. marcescens (Serratia marcescens; S. marcescens, 10 h cultivation at 37° C.) | MIC (μg/mL) P. mirabilis (Proteus mirabilis; P. mirabilis, 10 h cultivation at 37° C.) | MIC (E. coli DH5α) | MIC (μg/mL) P. aeruginosa (Pseudomonas aeruginosa; P. aeruginosa, 10 h cultivation at 37° C.) | MIC (μg/mL) E. cloacae (Enterobacter cloacae; E. cloacae, 10 h cultivation at 37° C.)
12.5 µg/mL: MIC (μg/mL) K. pneumonia (Klebsiella pneumonia; K. pneumonia, 10 h cultivation at 37° C.) | MIC (μg/mL) C. diversus (Citrobacter diversus; C. diversus, 10 h cultivation at 37° C.) | MIC (μg/mL) P. vulgaris (Proteus vulgaris; P. vulgaris, 10 h cultivation at 37° C.) | MIC (μg/mL) E. coli BL21 (E. coli BL21; 10 h cultivation at 37° C.)
25 µg/mL: MIC (μg/mL) A. hydrophila (Aeromonas hydrophila; A. hydrophila, 10 h cultivation at 37° C.) | MIC (μg/mL) M. catarrhalis (Moraxella catarrhalis; M. catarrhalis, 10 h cultivation at 37° C.)

PRT601 (CDCDIGGAYSNVCSPKNGQCECRPHVTGRSCSEPAPGYFFAPLNFYL; listed as Homo sapiens)
25 µg/mL: MIC A. hydrophila (Aeromonas hydrophila; 96-well plate, 37° C., 10 h) | MIC K. pneumonia (Klebsiella pneumonia; 96-well plate, 37° C., 10 h) | MIC E. coli BL21 (E. coli BL21; 96-well plate, 37° C., 10 h)
12.5 µg/mL: MIC S. marcescens (Serratia marcescens; 96-well plate, 37° C., 10 h) | MIC C. diversus (Citrobacter diversus; 96-well plate, 37° C., 10 h) | MIC P. aeruginosa (Pseudomonas aeruginosa; 96-well plate, 37° C., 10 h)
50 µg/mL: MIC M. catarrhalis (Moraxella catarrhalis; 96-well plate, 37° C., 10 h) | MIC (E. coli DH5α) | MIC P. vulgaris (Proteus vulgaris; 96-well plate, 37° C., 10 h) | MIC E. cloacae (Enterobacter cloacae; 96-well plate, 37° C., 10 h)
100 µg/mL: MIC P. mirabilis (Proteus mirabilis; 96-well plate, 37° C., 10 h)

PRT592 (CDCDFRGTEGPGCDKASGRCLCRPGLTGPRCDQCQRGYCNRYPVCVA; listed as Homo sapiens)
50 µg/mL: MIC against C. diversus (Citrobacter diversus; 96-well plate, 37° C., 10 h) | MIC against P. mirabilis (Proteus mirabilis; 96-well plate, 37° C., 10 h) | MIC (E. coli DH5α) | MIC against P. aeruginosa (Pseudomonas aeruginosa; 96-well plate, 37° C., 10 h) | MIC against E. cloacae (Enterobacter cloacae; 96-well plate, 37° C., 10 h)
100 µg/mL: MIC against M. catarrhalis (Moraxella catarrhalis; 96-well plate, 37° C., 10 h)
25 µg/mL: MIC against P. vulgaris (Proteus vulgaris; 96-well plate, 37° C., 10 h)
12.5 µg/mL: MIC against A. hydrophila (Aeromonas hydrophila; 96-well plate, 37° C., 10 h) | MIC against S. marcescens (Serratia marcescens; 96-well plate, 37° C., 10 h) | MIC against K. pneumonia (Klebsiella pneumonia; 96-well plate, 37° C., 10 h) | MIC against E. coli BL21 (E. coli BL21; 96-well plate, 37° C., 10 h)
